Laboratory results reported in patent US20100094000A1, “PYRAZOLE COMPOUNDS” (TAKEDA PHARMACEUTICAL COMPANY LIMITED, priority 2008, published 2010).

molecular target: T1, Human Mineralocorticoid Receptor (hMR) (Homo sapiens, UniProt P08235); assay: Inhibition of binding of hMR and [3H]-aldosterone (hMR lysate, charcoal separation); details: test compound at 10^−5 M; 10 nM [3H]-aldosterone; hMR lysate; 16 hr at 4° C.; read-out: Inhibition rate (at 10^−5 M)
T1 construct: To obtain the full-length hMR cDNA, pB-hMR (i) was digested with XhoI and PvuI; expressed in transfected cells; host or cells: FreeStyle 293 cells transiently transfected with pMCMVneo-hMR; supernatant of the freeze-thaw lysate (hMR lysate)
T1 sequence (P08235 1-984): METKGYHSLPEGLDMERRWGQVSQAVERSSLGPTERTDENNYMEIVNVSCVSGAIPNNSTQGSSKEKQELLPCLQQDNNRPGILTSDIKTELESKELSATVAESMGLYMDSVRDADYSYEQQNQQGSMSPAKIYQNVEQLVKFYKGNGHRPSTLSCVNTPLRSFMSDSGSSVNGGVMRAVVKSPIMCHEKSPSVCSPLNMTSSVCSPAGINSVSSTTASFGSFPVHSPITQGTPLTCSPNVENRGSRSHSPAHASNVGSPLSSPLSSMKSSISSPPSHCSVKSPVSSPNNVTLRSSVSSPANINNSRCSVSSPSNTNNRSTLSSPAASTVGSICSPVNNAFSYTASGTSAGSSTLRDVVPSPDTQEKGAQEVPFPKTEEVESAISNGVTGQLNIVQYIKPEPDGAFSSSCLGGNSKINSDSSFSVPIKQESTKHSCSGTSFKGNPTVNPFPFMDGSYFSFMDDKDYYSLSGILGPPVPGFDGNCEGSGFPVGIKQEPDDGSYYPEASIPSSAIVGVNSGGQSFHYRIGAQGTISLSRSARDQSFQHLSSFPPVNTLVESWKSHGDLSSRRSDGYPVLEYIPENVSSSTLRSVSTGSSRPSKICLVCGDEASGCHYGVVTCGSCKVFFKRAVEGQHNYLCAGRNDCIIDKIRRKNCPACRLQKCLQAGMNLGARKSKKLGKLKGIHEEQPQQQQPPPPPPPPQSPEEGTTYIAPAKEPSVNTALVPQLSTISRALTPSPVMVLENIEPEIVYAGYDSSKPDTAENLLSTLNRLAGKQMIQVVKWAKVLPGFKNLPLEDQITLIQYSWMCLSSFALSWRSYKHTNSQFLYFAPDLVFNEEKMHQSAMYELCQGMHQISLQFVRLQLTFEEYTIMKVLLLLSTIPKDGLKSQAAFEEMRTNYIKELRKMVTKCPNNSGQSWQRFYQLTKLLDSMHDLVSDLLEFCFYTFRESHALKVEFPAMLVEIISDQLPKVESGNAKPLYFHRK
Experimental: The following procedures described in this Example were carried out according to the methods described in Molecular Cloning—Cold Spring Harbor Laboratory (1989) or protocols specified by manufacturers.
(1) Cloning of Human Mineralocorticoid Receptor (hMR) cDNA
hMR cDNA was amplified by polymerase chain reaction (PCR) from human kidney cDNA library. Full-length cDNA was constructed from two fragments of hMR cDNA amplified separately. The primers were designed referring to the nucleotide sequence of hMR cDNA reported by Arriza et. al (Science 1987; 237: 268-275).
The PCR reactions were carried out using PyrobestR® DNA polymerase (Takara). The PCR products were electrophoresed in agarose gel, and 1.7 kb (region (i)) and 1.5 kb (region (ii)) DNA fragments were recovered. Each DNA fragment was inserted into pCR®4Blunt-TOPO® vector (Invitrogen). The resulting plasmids thus obtained were designated as pB-hMR (i) and pB-hMR (ii). To obtain the full-length hMR cDNA, pB-hMR (i) was digested with XhoI and PvuI, and pB-hMR (ii) was digested with PvuI and KpnI, respectively, and the two cDNA fragments were ligated into pBlueScript®IISK+ vector (Stratagene). The resulting plasmid thus obtained was designated as pB-hMR.
pMCMVneo (described in WO03/099793) was digested with XhoI and KpnI, and 5.6 kb fragment was ligated with 2.9 kb hMR cDNA fragment obtained by digestion of pB-hMR (described in above (1)) with XhoI and KpnI. The plasmid thus obtained was designated as pMCMVneo-hMR.
FreeStyle 293 cells were inoculated at 3×10^8 cells in 270 ml FreeStyle™ 293 Expression Medium (Invitrogen) in a 1000 ml Erlenmeyer flask. The cells were treated with 30 ml of the transfection mixture containing 300 μg of pMCMVneo-hMR obtained in above (2) and 400 μl of 293fectin™ Reagent (Invitrogen). The transfected cells were cultivated for 48 hr at 37° C. in 8% CO2 atmosphere at 125 rpm. The cultivated cells were centrifuged and washed with TEG buffer (10 mM Tris-HCl (pH 7.2), 50 mM EDTA, 10% glycerol), and resuspended in 10 ml TEGM buffer (10 mM Tris-HCl (pH 7.2), 1 mM EDTA, 10% glycerol, 1 mM β-mercaptoethanol, 10 mM sodium molybdate, 1 mM dithiothreitol, 2 tablets/100 ml of protease inhibitor cocktail tablets (Roche)). The cell suspension was frozen with liquid nitrogen and thawed on ice, and ultra-centrifuged at 186,000×g for 20 min at 4° C. The supernatant fraction including hMR (hMR lysate) was collected and stored at −80° C.
(4) Measurement of Inhibition Activity Against Binding of hMR and Aldosterone
[^3H]-Aldosterone (Amersham Biosciences) as ligand was added at 10 nM to the reaction mixture including test compound at various concentration and hMR lysate (lot.19: 0.675 mg/mL, lot.20: 0.675 mg/mL, lot.21: 0.765 mg/mL, lot.22: 0.900 mg/mi, lot.23: 0.750 mg/mL) obtained in above (3) and mixture was filled up to 50.5 μl with TEGM buffer. The reaction mixture was incubated for 16 hr at 4° C. and 35 μl of dextran/gelatin coated charcoal suspension (5% charcoal, 0.5% dextran T-70 (Amersham Biosciences), 0.1% gelatin (SIGMA), 10 mM Tris HCl (pH 7.2), 1 mM EDTA) was added thereto to separate bound and free radioactive aldosterone. The mixture containing charcoal was incubated for 10 min at 4° C. and centrifuged at 910×g for 10 min at 4° C.
Radioactivity in 30 μl of the supernatant was measured by TopCount™ (Packard).
For the determination of nonspecific binding, cold Aldosterone instead of drug was added to reaction mixture at 100 μM. Specific binding was determined by subtracting nonspecific binding from total binding.

inhibition at 10 µM [%] | SMILES
≥ 90 | Cc1nn(C)c(-c2ccc(F)cc2)c1-c1ccc2c(c1)NC(=O)CO2 [Example 1, 6-[5-(4-Fluorophenyl)-1,3-dimethyl-1H-pyrazol-4-yl]-2H-1,4-benzoxazin-3(4H)-one]
≥ 90 | Cc1nn(CCS(C)(=O)=O)c(-c2ccc(F)cc2)c1-c1ccc2c(c1)NC(=O)CO2 [Example 6, 6-{5-(4-Fluorophenyl)-3-methyl-1-[2-(methylsulfonyl)ethyl]-1H-pyrazol-4-yl}-2H-1,4-benzoxazin-3(4H)-one]
≥ 90 | Cc1nn(CCC(F)(F)CO)c(-c2ccc(F)cc2)c1-c1ccc2c(c1)NC(=O)CO2 [Example 25, 6-[1-(3,3-Difluoro-4-hydroxybutyl)-5-(4-fluorophenyl)-3-methyl-1H-pyrazol-4-yl]-2H-1,4-benzoxazin-3(4H)-one]
≥ 90 | CC(=O)OCC(F)(F)Cn1nc(C)c(-c2ccc3c(c2)NC(=O)CO3)c1-c1ccc(F)cc1 [Example 26, 2,2-Difluoro-3-[5-(4-fluorophenyl)-3-methyl-4-(3-oxo-3,4-dihydro-2H-1,4-benzoxazin-6-yl)-1H-pyrazol-1-yl]propyl acetate]
≥ 90 | Cc1nn(CC(C)(F)F)c(-c2ccc(F)cc2)c1-c1ccc2c(c1)NC(=O)CO2 [Example 83, 6-[1-(2,2-Difluoropropyl)-5-(4-fluorophenyl)-3-methyl-1H-pyrazol-4-yl]-2H-1,4-benzoxazin-3(4H)-one]
≥ 90 | CC(=O)Cn1nc(C)c(-c2ccc3c(c2)NC(=O)CO3)c1-c1ccc(F)cc1 [Example 87, 6-[5-(4-Fuorophenyl)-3-methyl-1-(2-oxopropyl)-1H-pyrazol-4-yl]-2H-1,4-benzoxazin-3(4H)-one]
≥ 90 | Cc1nn(CC(F)(F)CO)c(-c2ccc(F)cc2)c1-c1ccc2c(c1)NC(=O)CO2 [Example 109, 6-[1-(2,2-Difluoro-3-hydroxypropyl)-5-(4-fluorophenyl)-3-methyl-1H-pyrazol-4-yl]-2H-1,4-benzoxazin-3(4H)-one]
≥ 90 | Cc1nn(CC(C)(C)CO)c(-c2ccc(F)cc2)c1-c1ccc2c(c1)NC(=O)CO2 [Example 125, 6-[5-(4-Fluorophenyl)-1-(3-hydroxy-2,2-dimethylpropyl)-3-methyl-1H-pyrazol-4-yl]-2H-1,4-benzoxazin-3(4H)-one]
≥ 90 | Cc1nn(CC(F)(F)CO)c(-c2ccc(F)cc2)c1-c1ccc2c(c1C)NC(=O)CO2 [Example 128, 6-[1-(2,2-Difluoro-3-hydroxypropyl)-5-(4-fluorophenyl)-3-methyl-1H-pyrazol-4-yl]-5-methyl-2H-1,4-benzoxazin-3(4H)-one]
≥ 90 | Cc1nn(Cc2cccnc2)c(-c2ccc(F)cc2)c1-c1ccc2c(c1)NC(=O)CO2 [Example 135, 6-[5-(4-Fluorophenyl)-3-methyl-1-(pyridin-3-ylmethyl)-1H-pyrazol-4-yl]-2H-1,4-benzoxazin-3(4H)-one]
≥ 90 | Cc1nn(CC2CCOC2)c(-c2ccc(F)cc2)c1-c1ccc2c(c1)NC(=O)CO2 (stereo not drawn) [Example 146, 6-[5-(4-Fluorophenyl)-3-methyl-1-(tetrahydrofuran-3-ylmethyl)-1H-pyrazol-4-yl]-2H-1,4-benzoxazin-3(4H)-one]
≥ 90 | Cc1nn(C[C@@H]2CCC(=O)O2)c(-c2ccc(F)cc2)c1-c1ccc2c(c1)NC(=O)CO2 [Example 159, 6-[5-(4-Fluorophenyl)-3-methyl-1-{[(2S)-5-oxotetrahydrofuran-2-yl]methyl}-1H-pyrazol-4-yl]-2H-1,4-benzoxazin-3(4H)-one]

test system: not given; assay: not given; details: not given

melting point [°C] | SMILES
260.2 to 260.5 | Cc1nn(C)c(-c2ccc(F)cc2)c1-c1cc(Cl)c2c(c1)NC(=O)CO2 [Example 32, 8-Chloro-6-[5-(4-fluorophenyl)-1,3-dimethyl-1H-pyrazol-4-yl]-2H-1,4-benzoxazin-3(4H)-one]
205 to 206 | [2H]C1([2H])Oc2ccc(-c3c(C)nn(CC(C)(F)F)c3-c3ccc(F)cc3)cc2NC1=O [Example 174]
100 | CCOC(=O)CCC(=O)OCC(F)(F)Cn1nc(C)c(-c2ccc3c(c2)NC(=O)CO3)c1-c1ccc(F)cc1 [Example 185, 2,2-Difluoro-3-[5-(4-fluorophenyl)-3-methyl-4-(3-oxo-3,4-dihydro-2H-1,4-benzoxazin-6-yl)-1H-pyrazol-1-yl]propyl ethyl butanedioate]
106 | CCCCCCCCCCCCCCCC(=O)OCC(F)(F)Cn1nc(C)c(-c2ccc3c(c2)NC(=O)CO3)c1-c1ccc(F)cc1 [Example 186, 2,2-Difluoro-3-[5-(4-fluorophenyl)-3-methyl-4-(3-oxo-3,4-dihydro-2H-1,4-benzoxazin-6-yl)-1H-pyrazol-1-yl]propyl hexadecanoate]
142 | CCOC(=O)OCC(F)(F)Cn1nc(C)c(-c2ccc3c(c2)NC(=O)CO3)c1-c1ccc(F)cc1 [Example 187, 2,2-Difluoro-3-[5-(4-fluorophenyl)-3-methyl-4-(3-oxo-3,4-dihydro-2H-1,4-benzoxazin-6-yl)-1H-pyrazol-1-yl]propyl ethyl carbonate]
112 | CNC(=O)OCC(F)(F)Cn1nc(C)c(-c2ccc3c(c2)NC(=O)CO3)c1-c1ccc(F)cc1 [Example 198, 2,2-Difluoro-3-[5-(4-fluorophenyl)-3-methyl-4-(3-oxo-3,4-dihydro-2H-1,4-benzoxazin-6-yl)-1H-pyrazol-1-yl]propyl methylcarbamate]
